Laboratory results: US20050239873A1 (priority 1999, published 2005)

Legend:
RPMI-8226 cells = conditions: suboptimal combinations with etoposide or melphalan
Method: Current anti-myeloma regimens incorporate multiple drugs with different mechanisms of action. RPMI-8226 cells were treated with 2-OMeA1 in combination with standard chemotherapeutic agents used in myeloma treatment: etoposide, melphalan, or daunorubicin (Sonneveld and Segeren, Eur. J. Cancer 39:9-18, 2003).

[1] = tested on: TAMH cells that over-express Bcl-2; experiment: Sensitivity of Bcl-2 over-expressing cells to antimycin A; assay type: cell-based, murine; conditions: vs control cells
[2] = tested on: mitochondria from TABX2S cells; experiment: Rhodamine 123 retention assay; design: species or system murine; conditions: five minutes after adding
Method: Rh-123 is a cationic lipid-soluble fluorescent dye that accumulates in mitochondria in proportion to the mitochondrial membrane potential. Mitochondria were isolated from TABX2S cells (over-expressing Bcl-xL) and from control cells, prepared as described in Example 2. The isolated mitochondria were loaded with Rh-123 by incubating with 10 μM Rh-123 for 30 minutes, washed and resuspended in buffer. […] Less than 40% of Rh-123 was retained in antimycin A-treated TABX2S mitochondria, compared with greater than 80% retained in control mitochondria.

[3] = tested on: unfractionated human bone marrow cells; experiment: Toxicity in normal bone marrow cells (PI and annexin V, flow cytometry); assay type: cell-based; conditions: 5-20 μg/ml, 24 to 48 h
Method: The RPMI-8226 cell line was supplied by W. Dalton (Univ. Arizona). U266 and H929 cell lines were obtained from the American Type Culture Collection (Rockville, Md.). Cell lines were grown in RPMI 1640 (Gibco, Grand Island, N.Y.) supplemented with 5% fetal bovine serum (Hyclone, Logan, Utah). Normal bone marrow samples were obtained from allogeneic transplant donors at the Fred Hutchison Cancer Research Center, Seattle, Wash., with appropriate patient consent and Internal Review Board approval. Primary cells were maintained in Iscove's medium (Gibco) supplemented with 10% bovine calf serum, 100 ng/ml stem cell factor (Amgen, Thousand Oaks, Calif.), and 50 ng/ml interleukin-3 (Biosource, Camarillo, Calif.).
Cell survival was assayed by exclusion of propidium iodide (PI; 10 μg/ml) by unfixed cells. Annexin V-FITC (Pharmingen) or 3, 3′-dihexyloxacarbocyanine iodide (DiOC6(3); Molecular Probes) staining was analyzed together with PI to discriminate early apoptotic cells. Apoptotic cells were also measured as sub-G1 events among ethanol-fixed cells stained with 10 μg/ml PI. All cell samples were analyzed using a benchtop FACSCalibur™ (Becton Dickinson, San Jose, Calif.). Flow data were analyzed using MultiCycle AV software (Phoenix Flow Systems). For intracellular pH measurements, cell pellets were washed once and resuspended in 2 ml of HEPES-buffered medium (no phenol red and no serum). […]

[4] = tested on: mitochondria with normal levels of Bcl-xL expression; experiment: JC-1 membrane potential of isolated mitochondria; design: species or system murine
Method: Isolated mitochondria were loaded with JC-1 prior to treatment, and mitochondrial labeling was determined using FACS. […] Antimycin A-treated mitochondria with high levels of Bcl-xL had lower levels of JC-1 staining than parallel samples treated with CCCP. Uncoupled mitochondria still retain a significant Donnan potential because of trapped anionic species and it is likely that antimycin-induced PT and/or swelling of mitochondria led to a further reduction of this residual potential.
As observed for the parent compound, antimycin A3, mitochondria with normal levels of BCl-xL expression were not affected by the 2-methoxy analog.

[5] = Binding to plasma proteins (ultrafiltration); assay type: in vitro ADME, mouse; conditions: mouse, plasma, presence of NaF+EDTA, read-out: Protein binding, Mouse
Method: Solutions of 2-OMe antimycin A3 were diluted with plasma (dog or human) containing NaF+EDTA to final concentrations of 1.0 or 0.2 μg/ml. Controls were diluted with water to the same final concentrations. These preparations were incubated at 37° C. for 20 min, at which time portions were taken and placed in the sample reservoirs of Amicon Centrifree® ultrafiltration systems (Millipore Co., Bedford, Mass.). At 37° C., the filter systems were centrifuged until the reservoirs were dry. From each filtrate, portions were taken for analysis by HPLC. The amounts present were designated as “free drug” (F). The concentrations of the unfiltered solutions were also determined by triplicate analyses. This amount represented the “total drug” concentration (T). The percentage of 2-OMe antimycin A3 bound to plasma proteins was calculated by the following formula: % bound=((T−F)/T)×100

[6] = Stability in solution at pH 7.4 (no S9); assay type: physicochemical; conditions: pH 7.4, absence of S9 proteins

CCCCCC[C@H]1C(=O)O[C@H](C)[C@H](NC(=O)c2cccc(NC=O)c2OC)C(=O)O[C@@H](C)[C@@H]1OC(=O)CC(C)C [2-OMeA1, 2-methoxy antimycin A1]
killing in combination (RPMI-8226 cells): Supra-additive killing

antimycin A
sensitivity to antimycin A [1]: more sensitive
Rh-123 retained [2]: Less than 40%

2-methoxy antimycin A [2-OMeA]
sensitivity of primary lymphoid and myeloid bone marrow cell subpopulations [3]: insensitive

CCCC[C@H]1C(=O)OC(C)[C@H](NC(=O)c2cccc(NC=O)c2OC)C(=O)O[C@@H](C)C1OC(=O)CC(C)C (stereo partly shown) [2-OMeA3, Antimycin A3 methyl ether]
mitochondrial depolarization (JC-1) [4]: not affected
fraction unbound at 20 min, 1000 ng/ml [5]: < 0.01
stability in solution [6]: not stable
